From patent US8933015B2, “Macrocyclic inhibitors of flaviviridae viruses” (Gilead Sciences, Inc., priority 2010, dated 2015)

Tests used:
[1] = system: human hepatoma Huh-7 cell line harboring a HCV replicon; test: HCV replicon assay (inhibition of viral replication, luciferase); assay type: cell-based; settings: Hepatitis C virus; for EC50: Huh-7, 72 h; for inhibition at 1 µM: Huh-7, read-out: % inhibition at 1 μM
Experimental: The anti-HCV activity of the compounds of this invention was tested in a human hepatoma Huh-7 cell line harboring a HCV replicon. The assay comprised the following steps:
Step 1: Compound Preparation and Serial Dilution
Serial dilution was performed in 100% DMSO in a 384-well plate. A solution containing a compound at 225-fold concentration of the starting final serial dilution concentration was prepared in 100% DMSO and 15 uL added to the pre-specified wells in column 3 or 13 of a polypropylene 384-well plate. The rest of the 384-well plate was filled with 10 uL 100% DMSO except for columns 23 and 24, where 10 uL of 500 uM a HCV protease inhibitor (ITMN-191) in 100% DMSO was added. […] The plate was then placed on a Biomek FX Workstation to start the serial dilution. The serial dilution was performed for ten cycles of 3-fold dilution from column 3 to 12 or from column 13 to 22.
Step 2: Cell Culture Plate Preparation and Compound Addition
To each well of a black polypropylene 384-well plate, 90 μL of cell media containing 1600 suspended Huh-7 HCV replicon cells was added with a Biotek uFlow Workstation. A volume of 0.4 μL of the compound solution was transferred from the serial dilution plate to the cell culture plate on a Biomek FX Workstation. The DMSO concentration in the final assay condition was 0.44%. The plates were incubated for 3 days at 37° C. with 5% CO2 and 85% humidity.
Step 3: Detection of Cytotoxicity and Inhibition of Viral Replication
b) Assessment of inhibition of viral replication: The calcein-PBS solution in the 384-well cell culture plate was aspirated with a Biotek EL405 plate-washer. A volume of 20 μL of Dual-Glo luciferase buffer (Promega, Dual-Glo Luciferase Assay Reagent, cat. #E298B) was added to each well of the plate with a Biotek uFlow Workstation. The plate was incubated for 10 minutes at room temperature. A volume of 20 μL of a solution containing 1:100 mixture of Dual-Glo Stop & Glo substrate (Promega, Dual-Glo Luciferase Assay Reagent, cat. #E313B) and Dual-Glo Stop & Glo buffer (Promega, Dual-Glo Luciferase Assay Reagent, cat. #E314B) was then added to each well of the plate with a Biotek uFlow Workstation. The plate was incubated at room temperature for 10 minutes before the luminescence signal was measured with a Perkin Elmer Envision Plate Reader.
The percent cytotoxicity was determined by calcein AM conversion to fluorescent product. The average fluorescent signal from the DMSO control wells were defined as 100% nontoxic. The individual fluorescent signal from testing compound treated well was divided by the average signal from DMSO control wells and then multiplied by 100% to get the percent viability. The percent anti-HCV replication activity was determined by the luminescence signal from the testing well compared to DMSO controls wells. The background signal was determined by the average luminescence signal from the HCV protease inhibitor treated wells and was subtracted from the signal from the testing wells as well as the DMSO control wells.
Where b is Hill's coefficient. See, for reference, Hill, A. V., The Possible Effects of the Aggregation of the Molecules of Hemoglobin on its Dissociation Curves, J. Physiol. 40: iv-vii. (1910).
% inhibition values at a specific concentration, for example 2 μM, can also be derived from the formula above.
The EC50's are presented as a % inhibition.

cyclophilin A = cyclophilin A (Homo sapiens, UniProt P62937); test: Cyclophilin A TR-FRET competitive binding assay; settings: inhibition of cyclophilin binding; 5 nM CypA, 150 nM CsA-Cy5
Experimental: Cyclophilin A TR-FRET Competitive Binding Assay
Inhibitor potency was measured using a competitive binding assay with a time-resolved fluorescence resonance energy transfer (TR-FRET) readout. […] The total volume of the assay solution was 100 μL. […] An IC50 value was calculated using a four-parameter logistic fit.

Sequence of cyclophilin A (P62937 whole entry, species assumed): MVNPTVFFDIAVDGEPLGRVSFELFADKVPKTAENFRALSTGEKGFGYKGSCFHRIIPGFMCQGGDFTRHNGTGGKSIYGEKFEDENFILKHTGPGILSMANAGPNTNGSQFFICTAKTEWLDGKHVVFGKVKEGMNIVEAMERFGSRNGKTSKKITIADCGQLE

SMILES	EC50 [1] [nM]	inhibition at 1 µM [1] [%]	IC50 (cyclophilin A) [nM]
CO[C@@H]1[C@@H](C)[C@@H](OC)/C=C/C=C/CCOC(=O)[C@@H]2CCCN(N2)C(=O)[C@H](Cc2cccc(O)c2)NC(=O)[C@H](C(C)C)NC(=O)[C@@H]1C [Compound 3, (13E,15E)-(3S,6S,9R,10R,11S,12S,21S)-3-(3-Hydroxy-benzyl)-6-isopropyl-10,12-dimethoxy-9,11-dimethyl-19-oxa-1,4,7,25-tetraaza-bicyclo[19.3.1]pentacosa-13,15-diene-2,5,8,20-tetraone]	< 1000	59	
CO[C@@H]1[C@@H](C)[C@@H](OC)/C=C/C=C/CCNC(=O)[C@@H]2CCCN(N2)C(=O)[C@H](Cc2cccc(O)c2)NC(=O)[C@H](C(C)C)NC(=O)[C@@H]1C [Compound 4, (13E,15E)-(3S,6S,9R,10R,11S,12S,21S)-3-(3-Hydroxy-benzyl)-6-isopropyl-10,12-dimethoxy-9,11-dimethyl-1,4,7,19,25-pentaaza-bicyclo[19.3.1]pentacosa-13,15-diene-2,5,8,20-tetraone]	1100 to 10000	10	< 100
CO[C@@H]1[C@@H](C)[C@@H](OC)/C=C/c2cccc(c2)COC(=O)[C@@H]2CCCN(N2)C(=O)[C@H](Cc2cccc(O)c2)NC(=O)[C@H](C(C)C)NC(=O)[C@@H]1C [Compound 5, (E)-(5S,11S,14S,17R,18R,19S,20S)-11-(3-Hydroxy-benzyl)-14-isopropyl-18,20-dimethoxy-17,19-dimethyl-3-oxa-9,12,15,28-tetraaza-tricyclo[21.3.1.1*5,9*]octacosa-1(27),21,23,25-tetraene-4,10,13,16-tetraone]	< 1000	67	< 100
CC(C)[C@@H]1NC(=O)[C@H](C)[C@H](O)c2ccc(cc2)/C=C/CCOC(=O)[C@@H]2CCCN(N2)C(=O)[C@H](Cc2cccc(O)c2)NC1=O [Compound 8, (E)-(8S,14S,17S,20R,21S)-21-Hydroxy-14-(3-hydroxy-benzyl)-17-isopropyl-20-methyl-6-oxa-12,15,18,27-tetraaza-tricyclo[20.2.2.1*8,12*]heptacosa-1(25),2,22(26),23-tetraene-7,13,16,19-tetraone]		13	101 to 1000
CC(C)[C@@H]1NC(=O)[C@H](C)[C@H](O)c2ccc(cc2)CCCCOC(=O)[C@@H]2CCCN(N2)C(=O)[C@H](Cc2cccc(O)c2)NC1=O [Compound 9, (8S,14S,17S,20R,21S)-21-Hydroxy-14-(3-hydroxy-benzyl)-17-isopropyl-20-methyl-6-oxa-12,15,18,27-tetraaza-tricyclo[20.2.2.1*8,12*]heptacosa-1(25),22(26),23-triene-7,13,16,19-tetraone]	10100 to 100000	4	1000 to 10000
CO[C@@H]1CC/C=C/c2cccc(c2)COC(=O)[C@@H]2CCCN(N2)C(=O)[C@H](Cc2cccc(O)c2)NC(=O)[C@H](C(C)C)NC(=O)[C@@H]1C [Compound 10, (E)-(5S,11S,14S,17R,18R)-11-(3-Hydroxy-benzyl)-14-isopropyl-18-methoxy-17-methyl-3-oxa-9,12,15,28-tetraaza-tricyclo[21.3.1.1*5,9*]octacosa-1(27),21,23,25-tetraene-4,10,13,16-tetraone]		59	
CO[C@@H]1CC/C=C/C=C/CCOC(=O)[C@@H]2CCCN(N2)C(=O)[C@H](Cc2cccc(O)c2)NC(=O)[C@H](C(C)C)NC(=O)[C@@H]1C [Compound 11, (13E,15E)-(3S,6S,9R,10R,21S)-3-(3-Hydroxy-benzyl)-6-isopropyl-10-methoxy-9-methyl-19-oxa-1,4,7,25-tetraaza-bicyclo[19.3.1]pentacosa-13,15-diene-2,5,8,20-tetraone]	< 1000	67	
CO[C@@H]1[C@@H](C)[C@@H](OC)/C=C/C=C/C[C@@H](C)OC(=O)[C@@H]2CCCN(N2)C(=O)[C@H](Cc2cccc(O)c2)NC(=O)[C@H](C(C)C)NC(=O)[C@@H]1C [Compound 12, (13E,15E)-(3S,6S,9R,10R,11S,12S,18R,21S)-3-(3-Hydroxy-benzyl)-6-isopropyl-10,12-dimethoxy-9,11,18-trimethyl-19-oxa-1,4,7,25-tetraaza-bicyclo[19.3.1]pentacosa-13,15-diene-2,5,8,20-tetraone]	< 1000	82	< 100
CO[C@@H]1CC/C=C/c2cccc(c2)[C@@H](C)OC(=O)[C@@H]2CCCN(N2)C(=O)[C@H](Cc2cccc(O)c2)NC(=O)[C@H](C(C)C)NC(=O)[C@@H]1C [Compound 13, (E)-(2R,5S,11S,14S,17R,18R)-11-(3-Hydroxy-benzyl)-14-isopropyl-18-methoxy-2,17-dimethyl-3-oxa-9,12,15,28-tetraaza-tricyclo[21.3.1.1*5,9*]octacosa-1(26),21,23(27),24-tetraene-4,10,13,16-tetraone]	< 1000	93	
CO[C@@H]1CC/C=C/c2cccc(c2)[C@@H](C)NC(=O)[C@@H]2CCCN(N2)C(=O)[C@H](Cc2cccc(O)c2)NC(=O)[C@H](C(C)C)NC(=O)[C@@H]1C [Compound 16, (E)-(2R,5S,11S,14S,17R,18R)-11-(3-Hydroxy-benzyl)-14-isopropyl-18-methoxy-2,17-dimethyl-3,9,12,15,28-pentaaza-tricyclo[21.3.1.1*5,9*]octacosa-1(27),21,23,25-tetraene-4,10,13,16-tetraone]	< 1000	75	< 100
CO[C@@H]1CC/C=C/c2ccnc(c2)COC(=O)[C@@H]2CCCN(N2)C(=O)[C@H](Cc2cccc(O)c2)NC(=O)[C@H](C(C)C)NC(=O)[C@@H]1C [Compound 17, (E)-(1S,14R,15R,18S,21S)-21-(3-Hydroxy-benzyl)-18-isopropyl-14-methoxy-15-methyl-3-oxa-6,17,20,23,27-pentaaza-tricyclo[21.3.1.1*5,9*]octacosa-5,7,9(28),10-tetraene-2,16,19,22-tetraone]	< 1000	56	< 100
CO[C@@H]1CC/C=C/c2cc(ccn2)COC(=O)[C@@H]2CCCN(N2)C(=O)[C@H](Cc2cccc(O)c2)NC(=O)[C@H](C(C)C)NC(=O)[C@@H]1C [Compound 18, (E)-(1S,14R,15R,18S,21S)-21-(3-Hydroxy-benzyl)-18-isopropyl-14-methoxy-15-methyl-3-oxa-8,17,20,23,27-pentaaza-tricyclo[21.3.1.1*5,9*]octacosa-,7,9(28),10-tetraene-2,16,19,22-tetraone]	< 1000	54	< 100
CO[C@@H]1CC/C=C/c2ccc3c(c2)[C@@H](CC3)OC(=O)[C@@H]2CCCN(N2)C(=O)[C@H](Cc2cccc(O)c2)NC(=O)[C@H](C(C)C)NC(=O)[C@@H]1C [Compound 19]	< 1000	70	< 100
CO[C@@H]1CCCCc2cccc(c2)[C@@H](C)OC(=O)[C@@H]2CCCN(N2)C(=O)[C@H](Cc2cccc(O)c2)NC(=O)[C@H](C(C)C)NC(=O)[C@@H]1C [Compound 20, (2R,5S,11S,14S,17R,18R)-11-(3-Hydroxy-benzyl)-14-isopropyl-18-methoxy-2,17-dimethyl-3-oxa-9,12,15,28-tetraaza-tricyclo[21.3.1.1*5,9*]octacosa-1(27),23,25-triene-4,10,13,16-tetraone]	< 1000	92	< 100
